Assay results reported in patent EP3638670B1, “SUBSTITUTED PYRROLOPYRIDINE-DERIVATIVES AS MAP4K1 MODULATORS FOR THE TREATMENT OF CANCER DISEASES” (Bayer Pharma Aktiengesellschaft, priority 2017, dated 2018).

Legend:
MAP4K1 = biological target: T1, MAP4K1 (Homo sapiens, UniProt Q92918); test: TR-FRET-based binding competition assay (Tracer 222, GST-fusion protein); conditions: inhibition of binding of Tracer 222 (15 nM) to GST-fusion protein (1 nM), 30 min at 22°C
T1 construct: A recombinant fusion protein of N-terminal GST and full-length human; made in house; host or cells: baculovirus-infected SF9 insect cells
Description: The ability of the compounds of the present invention to inhibit the binding of an Alexa647-labelled ATP-competitive kinase inhibitor to a Glutathione-S-transferase- (GST-) fusion protein was quantified employing the TR-FRET-based binding competition assay as described in the following paragraphs.
A recombinant fusion protein of N-terminal GST and full-length human , expressed by baculovirus infected SF9 insect cells and purified by Glutathione Sepharose affinity chromatography, was used as GST- fusion protein. Tracer 222 from Invitrogen (catalogue no. PR9198A) was used as Alexa647-labelled ATP-competitive kinase inhibitor. For the assay 50 nl of a 100fold concentrated solution of the test compound in DMSO was pipetted into either a black low volume 384well microtiter plate or a black 1536well microtiter plate (both Greiner Bio-One, Frickenhausen, Germany), 3 µl solution of Tracer 222 (25 nM => final concentration in 5 µl assay volume is 15 nM) in aqueous assay buffer [25 mM Tris/HCI pH 7.5, 10 mM MgCl2, 5 mM β-glycerolphosphate, 2.5 mM dithiothreitol, 0.5 mM ethylene glycol-bis(2-aminoethylether)-N,N,N',N'-tetraacetic acid [EGTA], 0.5 mM sodium orthovanadate, 0.01 % (w/v) bovine serum albumin [BSA], 0.005% (w/v) Pluronic F-127 (Sigma)] were added. Then the binding competition was started by the addition of 2 µl of a solution of the GST- fusion protein (2.5 nM => final conc. in the 5 µl assay volume is 1 nM) and of Anti-GST-Tb (1.25 nM => final conc. in the 5 µl assay volume is 0.5 nM), a Lumi4®-Tb Cryptate-conjugated anti-GST-antibody from Cisbio Bioassays (France), in assay buffer.
The resulting mixture was incubated 30 min at 22°C to allow the formation of a complex between the Tracer 222, the fusion protein and Anti-GST-Tb. Subsequently the amount of this complex was evaluated by measurement of the resonance energy transfer from the Tb-cryptate to the Tracer 222. Therefore, the fluorescence emissions at 620 nm and 665 nm after excitation at 350 nm were measured in a TR-FRET reader, e.g. a Pherastar (BMG Labtechnologies, Offenburg, Germany) or a Viewlux (Perkin-Elmer). The ratio of the emissions at 665 nm and at 622 nm was taken as the measure for the amount of the complex. The data were normalised (assay reaction without inhibitor = 0 % inhibition, all other assay components but GST- fusion protein = 100 % inhibition). […] Table 1: Measured IC50 values of compounds regarding inhibition

pSer376-SLP-76 = test: Phosphorylation assay in human cell line (pSer376-SLP-76, capillary electrophoresis); format: cell-based; conditions: 0.5 h, Jurkat E6.1 cells overexpressing FLAG-tagged SLP-76, a-CD3 (OKT3) stimulation, 30 min at 37 °C; for activity at 10 µM: 10µM compound, read-out: % amount of pSer376-SLP-76 @ 10µM; for activity at 20 µM: 20µM compound, read-out: % amount of pSer376-SLP-76 @ 20µM
Procedure: Phosphorylation assays were carried out in Jurkat E6.1 cells from American Type Culture Collection (ATCC) stably overexpressing human FLAG-tagged SLP-76 (proprietary). Cultured cells were kept in RPMI 1640 medium supplemented with 1% FCS at a cell density of 2x 10e6/mL 24h prior compound testing. Starved cells were simultaneously treated with 350 ng/mL a-CD3 antibody (clone OKT3. ebioscience #16-0037-85. plate-bound) and test compound for 30 min at 37 °C. Applied compounds were tested at either fixed concentration of 10 µmol/L and 20 µmol/L or in a 8 point dose response titration of increase compound concentration with 10 nmol/L. 50 nmol/L. 100 nmol/L. 500 nmol/L. 1 µmol/L. 5 µmol/L. 10 µmol/L and 20 µmol/L in triplicates. The cells were washed once in phosphate-buffered saline (pH 7.4). Cells were lysed using a lysis buffer containing 50 mmol/L Tris-CI (pH 7.5). 150 mM NaCl. 2 mM EDTA. 1% Triton-X 100. 0.5 % Na-DOC. 0.1% SDS. 1/10 complete mini protease inhibitor cocktail (Roche #11836170001) and 1/10 PhosSTOP phosphatase inhibitor cocktail (Roche #04906837001). A total of 1.25 µg cell lysate was analyzed by capillary electrophoresis using the Peggy Sue™ System (proteinsimple® San Jose. CA USA) with a 12-230kDa sizebased master kit with split buffer / a-rabbit-HRP #PS-MK18 / a-mouse-HRP #PS-MK19 according to manufacture's protocol. Probe antibodies used were a rabbit monoclonal antibody supernatant raised against human phospho-Ser376-SLP-76 peptide (proprietary) and for mormalization an a-alpha-Tubulin. mouse monoclonal antibody (Sigma #T9026). As control for maximal effect (max control. which represent the maximally possible inhibition of pSer376-SLP-76 by a test compound) cells with no a-CD3 (clone OKT3. ebioscience #16-0037-85. plate-bound) and no test compound treatment were used. Cells with a-CD3 treatment only were used as negative control (min control. which represent the minimally possible inhibition of pSer376-SLP-76 by a test compound)
AUC values of each respective test sample were normalized using the AUC of housekeeping gene alpha-Tubulin and AUC of pSer376-SLP-76 of the min control. The percentage of the amount of pSer-SLP-76 in the treatment samples was calculated using the max control and min control values of the respective Peggy Sue™ run. Table 3: Measured % amount of pSer376-SLP-76 of compound

T1 sequence (Q92918 whole entry, the tested form may be a part): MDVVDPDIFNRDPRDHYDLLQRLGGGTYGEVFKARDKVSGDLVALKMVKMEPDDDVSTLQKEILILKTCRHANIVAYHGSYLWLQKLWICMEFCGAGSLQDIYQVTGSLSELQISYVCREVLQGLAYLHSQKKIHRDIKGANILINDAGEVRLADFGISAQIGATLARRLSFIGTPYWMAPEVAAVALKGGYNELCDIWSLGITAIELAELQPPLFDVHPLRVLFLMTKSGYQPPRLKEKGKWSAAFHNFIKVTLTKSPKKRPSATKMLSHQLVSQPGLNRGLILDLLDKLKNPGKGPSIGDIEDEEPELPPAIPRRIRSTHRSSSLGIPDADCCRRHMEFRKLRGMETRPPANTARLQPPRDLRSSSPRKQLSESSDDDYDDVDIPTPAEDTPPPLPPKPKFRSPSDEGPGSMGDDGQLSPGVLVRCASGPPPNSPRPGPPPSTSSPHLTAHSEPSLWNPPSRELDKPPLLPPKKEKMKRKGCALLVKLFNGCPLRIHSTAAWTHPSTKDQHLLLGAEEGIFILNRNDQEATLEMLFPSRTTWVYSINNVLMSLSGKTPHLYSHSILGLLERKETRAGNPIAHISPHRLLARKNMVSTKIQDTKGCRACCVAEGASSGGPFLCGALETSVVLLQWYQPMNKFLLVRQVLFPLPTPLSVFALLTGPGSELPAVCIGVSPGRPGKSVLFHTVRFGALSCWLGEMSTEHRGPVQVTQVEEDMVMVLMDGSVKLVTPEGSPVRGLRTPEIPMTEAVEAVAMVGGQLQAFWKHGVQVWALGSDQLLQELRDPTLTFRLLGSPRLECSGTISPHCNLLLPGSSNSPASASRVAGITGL

| SMILES | IC50 (MAP4K1) | activity at 10 µM (pSer376-SLP-76) | activity at 20 µM (pSer376-SLP-76) |
| --- | --- | --- | --- |
| O=C(NCCN1CCOCC1)Nc1ccc(Oc2ccnc3[nH]cc(C(F)(F)F)c23)c(C(F)(F)F)c1 [Example 1, 1-[2-(morpholin-4-yl)ethyl]-3-[3-(trifluoromethyl)-4-{[3-(trifluoromethyl)-1H-pyrrolo[2,3-b]pyridin-4-yl]oxy}phenyl]urea] | 69.4 nM | 25.2% | 5.5% |
| O=C(NCCCN1CCOCC1)Nc1ccc(Oc2ccnc3[nH]cc(C(F)(F)F)c23)c(C(F)(F)F)c1 [Example 2, 1-[3-(morpholin-4-yl)propyl]-3-[3-(trifluoromethyl)-4-{[3-(trifluoromethyl)-1H-pyrrolo[2,3-b]pyridin-4-yl]oxy}phenyl]urea] | 56.2 nM | 25.1% | 6.5% |
| NC(=O)Nc1ccc(Oc2ccnc3[nH]cc(C(F)(F)F)c23)c(C(F)(F)F)c1 [Example 3, 1-[3-(trifluoromethyl)-4-{[3-(trifluoromethyl)-1H-pyrrolo[2,3-b]pyridin-4-yl]oxy}phenyl]urea] | 56.2 nM | 21% | 2.6% |
| O=C(NCCCN1CCOCC1)Nc1cc(F)c(Oc2ccnc3[nH]cc(C(F)(F)F)c23)c(C(F)(F)F)c1 [Example 4, 1-[3-fluoro-5-(trifluoromethyl)-4-{[3-(trifluoromethyl)-1H-pyrrolo[2,3-b]pyridin-4-yl]oxy}phenyl]-3-[3-(morpholin-4-yl)propyl]urea] | 65 nM | 17% | < 1% |
| O=C(NCCN1CCOCC1)Nc1cc(F)c(Oc2ccnc3[nH]cc(C(F)(F)F)c23)c(C(F)(F)F)c1 [Example 5, 1-[3-fluoro-5-(trifluoromethyl)-4-{[3-(trifluoromethyl)-1H-pyrrolo[2,3-b]pyridin-4-yl]oxy}phenyl]-3-[2-(morpholin-4-yl)ethyl]urea] | 64.6 nM | 27.1% | < 1% |
| O=C(NCCCN1CCOCC1)Nc1ccc(Oc2ccnc3[nH]cc(Cl)c23)c(C(F)(F)F)c1 [Example 6, 1-{4-[(3-chloro-1H-pyrrolo[2,3-b]pyridin-4-yl)oxy]-3-(trifluoromethyl)phenyl}-3-[3-(morpholin-4-yl)propyl]urea] | 158 nM | 69.9% | 29.5% |
| O=C(NCCN1CCOCC1)Nc1ccc(Oc2ccnc3[nH]cc(Cl)c23)c(C(F)(F)F)c1 [Example 7, 1-{4-[(3-chloro-1H-pyrrolo[2,3-b]pyridin-4-yl)oxy]-3-(trifluoromethyl)phenyl}-3-[2-(morpholin-4-yl)ethyl]urea] | 124 nM | 5.1% | < 1% |
| NC(=O)Nc1ccc(Oc2ccnc3[nH]cc(Cl)c23)c(C(F)(F)F)c1 [Example 8, 1-{4-[(3-chloro-1H-pyrrolo[2,3-b]pyridin-4-yl)oxy]-3-(trifluoromethyl)phenyl}urea] | 188 nM | 92.7% | 73.6% |
| O=C(Nc1ccc(Oc2ccnc3[nH]cc(Cl)c23)c(C(F)(F)F)c1)Nc1cccnn1 [Example 9, 1-{4-[(3-chloro-1H-pyrrolo[2,3-b]pyridin-4-yl)oxy]-3-(trifluoromethyl)phenyl}-3-pyridazin-3-ylurea] | 1260 nM | – | – |
| Cc1ncc(NC(=O)Nc2ccc(Oc3ccnc4[nH]cc(Cl)c34)c(C(F)(F)F)c2)cn1 [Example 10, 1-{4-[(3-chloro-1H-pyrrolo[2,3-b]pyridin-4-yl)oxy]-3-(trifluoromethyl)phenyl}-3-(2-methylpyrimidin-5-yl)urea] | 171 nM | 15.9% | < 1% |
| COc1cc(NC(=O)NCCCN2CCOCC2)ccc1Oc1ccnc2[nH]cc(C(F)(F)F)c12 [Example 11, 1-(3-methoxy-4-{[3-(trifluoromethyl)-1H-pyrrolo[2,3-b]pyridin-4-yl]oxy}phenyl)-3-[3-(morpholin-4-yl)propyl]urea] | 315 nM | 68.1% | 53.8% |
| O=C(NCCCN1CCOCC1)Nc1ccc(Oc2ccnc3[nH]cc(C(F)(F)F)c23)c(OC(F)(F)F)c1 [Example 12, 1-[3-(morpholin-4-yl)propyl]-3-[3-(trifluoromethoxy)-4-{[3-(trifluoromethyl)-1H-pyrrolo[2,3-b]pyridin-4-yl]oxy}phenyl]urea] | 469 nM | 61.8% | 23.9% |
| O=C(NCCN1CCOCC1)Nc1ccc(Oc2ccnc3[nH]cc(C(F)(F)F)c23)c(OC(F)(F)F)c1 [Example 13, 1-[2-(morpholin-4-yl)ethyl]-3-[3-(trifluoromethoxy)-4-{[3-(trifluoromethyl)-1H-pyrrolo[2,3-b]pyridin-4-yl]oxy}phenyl]urea] | 439 nM | – | – |
